The target in this test is human RIP1 kinase domain (2-375) (Homo sapiens (Human), UniProt Q13546). In words: biochemical. Format: biochemical. An outline of the steps:
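Ki^app comes from Morrison tight-binding fits of fractional activity versus compound concentration. Activity was read as ADP production, via tracer displacement lowering fluorescence polarization (633 nm laser). Conditions: 2 h, 50 nM insect-cell-expressed enzyme, 50 uM ATP, 30 mM MgCl2, 1 mM DTT, 0.5% DMSO, pH 7.5 Hepes.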

Where [1] appears, read: human RIP1 kinase domain (2-375), 50 uM ATP, 2 hours incubation, Transcreener ADP assay, read-out: RIP1 Ki.
Where [2] appears, read: tight-binding apparent inhibition constant, human RIP1 kinase domain (2-375) 50 nM, 50 uM ATP, 2 hours, read-out: Ki.
Where [3] appears, read: human RIP1 kinase domain (2-375), Transcreener ADP assay, 50 uM ATP, 2 hours incubation, read-out: RIP1 Ki.
The mark [4] stands for this setting: Table 1, apparent Ki (Morrison tight-binding fit), 50 nM RIP1 kinase domain, 50 uM ATP, 2 hours incubation, read-out: RIP1 Ki.
The mark [5] stands for this setting: Table 5, apparent Ki (Morrison tight-binding fit), 50 nM RIP1 kinase domain, 50 uM ATP, 2 hours incubation, read-out: Ki.

Each structure is given as a SMILES string. Like-named read-outs stand apart in the source and are kept apart here.

Chain of human RIP1 kinase domain (2-375) (Q13546 2-375): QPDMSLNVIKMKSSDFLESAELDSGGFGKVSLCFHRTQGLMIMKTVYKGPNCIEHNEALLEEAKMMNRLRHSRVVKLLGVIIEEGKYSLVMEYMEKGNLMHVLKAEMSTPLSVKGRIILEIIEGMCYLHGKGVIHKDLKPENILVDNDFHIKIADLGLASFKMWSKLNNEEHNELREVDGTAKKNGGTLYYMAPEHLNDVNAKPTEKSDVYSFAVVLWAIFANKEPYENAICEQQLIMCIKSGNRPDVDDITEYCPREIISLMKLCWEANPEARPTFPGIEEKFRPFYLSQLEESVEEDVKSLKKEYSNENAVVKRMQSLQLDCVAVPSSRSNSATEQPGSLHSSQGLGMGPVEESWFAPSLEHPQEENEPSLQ

Take `CN1C(=O)[C@@H](NC(=O)c2cn(Cc3ccc(F)c(F)c3)cn2)CCn2nccc21` [Example 146, (S)-1-(3,4-difluorobenzyl)-N-(4-methyl-5-oxo-5,6,7,8-tetrahydro-4H-pyrazolo[1,5-a][1,3]diazepin-6-yl)-1H-imidazole-4-carboxamide]: the Ki under setting [1] is 0.301 µM.
On to `CN1C(=O)[C@@H](NC(=O)c2n[nH]c3c2C[C@@H](C(C)(C)C)CC3)COc2ccccc21` [Example 58, (S)-5-(tert-butyl)-N-((S)-5-methyl-4-oxo-2,3,4,5-tetrahydrobenzo[b][1,4]oxazepin-3-yl)-4,5,6,7-tetrahydro-1H-indazole-3-carboxamide], for which, under “read-out: RIP1 Ki”, the Ki was 0.121 µM.
In the case of `C[C@H]1CCc2[nH]nc(C(=O)N[C@H]3COc4ccccc4N(C)C3=O)c2C1` [Example 55, (S)-5-methyl-N-((S)-5-methyl-4-oxo-2,3,4,5-tetrahydrobenzo[b][1,4]oxazepin-3-yl)-4,5,6,7-tetrahydro-1H-indazole-3-carboxamide], the Ki (read-out: RIP1 Ki) amounted to 0.103 µM.
As to `Cc1cn2c(n1)N(C)C(=O)[C@H](NC(=O)c1ncn(Cc3cc(F)ccc3F)n1)CC2` [Example 661, 1-[(2,5-difluorophenyl)methyl]-N-(7R)-2,9-dimethyl-8-oxo-6,7-dihydro-5H-imidazo[1,2-a][1,3]diazepin-7-yl-1,2,4-triazole-3-carboxamide], the Ki under setting [2] was determined as 0.057 µM.
Consider `CN1C(=O)[C@@H](NC(=O)c2nc3cccc(-c4ccccc4)n3n2)COc2ccccc21` [Example 373, (S)—N-(5-methyl-4-oxo-2,3,4,5-tetrahydrobenzo[b][1,4]oxazepin-3-yl)-5-phenyl-[1,2,4]triazolo[1,5-a]pyridine-2-carboxamide], for which the Ki under setting [2] turned out to be 0.0043 µM.
For the compound `CN1C(=O)[C@@H](NC(=O)c2nnc(Cc3ccccc3)[nH]2)CCn2nc(C3CC3(F)F)cc21` (stereo partly drawn) [Example 285, 5-benzyl-N-((6S)-2-(2,2-difluorocyclopropyl)-4-methyl-5-oxo-5,6,7,8-tetrahydro-4H-pyrazolo[1,5-a][1,3]diazepin-6-yl)-4H-1,2,4-triazole-3-carboxamide], the Ki under setting [3] turned out to be 0.219 µM.
As for `CCC1CCc2nc(C(=O)N[C@H]3COc4cc(C)cc(F)c4NC3=O)nn21` (stereo partly drawn) [Example 349, 5-ethyl-N-[(3S)-6-fluoro-8-methyl-4-oxo-3,5-dihydro-2H-1,5-benzoxazepin-3-yl]-6,7-dihydro-5H-pyrrolo[1,2-b][1,2,4]triazole-2-carboxamide], the Ki under setting [2] came out at 0.0335 µM.
Turning to `Cc1cc2n(n1)CC[C@H](NC(=O)c1ncn(C(C)c3ccc(F)cc3)n1)C(=O)N2C` (stereo partly drawn) [Example 270, N—((S)-2,4-dimethyl-5-oxo-5,6,7,8-tetrahydro-4H-pyrazolo[1,5-a][1,3]diazepin-6-yl)-1-(1-(4-fluorophenyl)ethyl)-1H-1,2,4-triazole-3-carboxamide], the Ki under setting [3] came to 0.0885 µM.
As to `CN1C(=O)C(NC(=O)c2nnc(Cc3ccccc3)[nH]2)CCCn2nc(C3CC3)cc21` (centres unmarked) [Example 105, 5-benzyl-N-(2-cyclopropyl-4-methyl-5-oxo-4,5,6,7,8,9-hexahydropyrazolo[1,5-a][1,3]diazocin-6-yl)-4H-1,2,4-triazole-3-carboxamide], under setting [1], the Ki came to 0.262 µM.
For `Cc1cc2n(n1)CC[C@H](NC(=O)c1ncc3cnn(-c4c(F)cccc4F)c3n1)C(=O)N2C` [Example 609, 1-(2,6-difluorophenyl)-N-[(6S)-2,4-dimethyl-5-oxo-7,8-dihydro-6H-pyrazolo[1,5-a][1,3]diazepin-6-yl]pyrazolo[3,4-d]pyrimidine-6-carboxamide], the Ki under setting [2] came out at 0.071 µM.
With `O=C(N[C@H]1COc2ccccc2NC1=O)c1n[nH]c2c1CC1CC1C2` (stereo partly drawn) [Example 4, N—((S)-4-oxo-2,3,4,5-tetrahydrobenzo[b][1,4]oxazepin-3-yl)-1,4,4a,5,5a,6-hexahydrocyclopropa[f]indazole-3-carboxamide], the Ki under setting [4] was 5.5 µM.
Turning to `CN1C(=O)[C@@H](NC(=O)c2ncn(Cc3ccccc3)n2)CCn2nc(CCN3CC(F)(F)C3)cc21` [Example 772], under setting [5], the Ki is 0.115 µM.
Regarding `Cc1cc2n(n1)CCC(NC(=O)c1nnc(Cc3ccccc3)[nH]1)C(=O)N2C` (centres unmarked) [Example 28, 5-benzyl-N-(2,4-dimethyl-5-oxo-5,6,7,8-tetrahydro-4H-pyrazolo[1,5-a][1,3]diazepin-6-yl)-4H-1,2,4-triazole-3-carboxamide], under setting [4], the Ki is 0.137 µM.
In the case of `CN1C(=O)[C@H](NC(=O)c2ncn(Cc3c(F)cccc3F)n2)CCn2ccnc21` [Example 602, 1-[(2,6-difluorophenyl)methyl]-N-[(7R)-9-methyl-8-oxo-6,7-dihydro-5H-imidazo[1,2-a][1,3]diazepin-7-yl]-1,2,4-triazole-3-carboxamide], the Ki under setting [2] was determined as 0.031 µM.
As to `CN1C(=O)[C@@H](NC(=O)c2nc3n(n2)C(c2cc(F)ccc2F)CCC3)CCn2nccc21` (stereo partly drawn) [Example 388, 5-(2,5-difluorophenyl)-N—((S)-4-methyl-5-oxo-5,6,7,8-tetrahydro-4H-pyrazolo[1,5-a][1,3]diazepin-6-yl)-5,6,7,8-tetrahydro-[1,2,4]triazolo[1,5-a]pyridine-2-carboxamide], the Ki under setting [2] turned out to be 0.124 µM.
Take `CN1C(=O)[C@@H](NC(=O)c2nc3n(n2)[C@@H](c2ccccc2)CCC3)COc2ccccc21` (single isomer, unassigned) [Example 734]: the Ki under setting [5] is 0.149 µM.
Regarding `CN1C(=O)[C@@H](NC(=O)c2nc3n(n2)CCOC32CCCC2)COc2ccccc21` [Example 562, N-[(3S)-5-methyl-4-oxo-2,3-dihydro-1,5-benzoxazepin-3-yl]spiro[5,6-dihydro-[1,2,4]triazolo[5,1-c][1,4]oxazine-8,1′-cyclopentane]-2-carboxamide], under setting [2], the Ki was 0.02 µM.
In the case of `C[C@@]1(C(F)(F)F)OCc2cnc(C(=O)N[C@H]3CCc4cc(F)cc(F)c4NC3=O)cc21` [Example 748, (1R)-1-methyl-N-[(3S)-7,9-difluoro-2-oxo-1,3,4,5-tetrahydro-1-benzazepin-3-yl]-1-(trifluoromethyl)-3H-furo[3,4-c]pyridine-6-carboxamide], the Ki under setting [5] was determined as 0.014 µM.
As for `CN1C(=O)[C@@H](NC(=O)c2ncn(CC3CCOC3)n2)CCn2nc(C3CC3)cc21` (some centres unmarked) [Example 480], the Ki under setting [2] turned out to be 2.6 µM.
Regarding `Cc1cc(F)c2c(c1)OC[C@H](NC(=O)c1n[nH]c3c1C[C@@H](C(F)(F)F)CC3)C(=O)N2` [Example 88, (S)—N—((S)-6-fluoro-8-methyl-4-oxo-2,3,4,5-tetrahydrobenzo[b][1,4]oxazepin-3-yl)-5-(trifluoromethyl)-4,5,6,7-tetrahydro-1H-indazole-3-carboxamide], the Ki under setting [1] was determined as 0.0167 µM.
With `Cc1ncccc1Cn1cnc(C(=O)N[C@H]2CCn3nc(C4CC4)cc3N(C)C2=O)n1` [Example 665], the Ki under setting [2] came out at 0.74 µM.
For `CCC[C@@H]1CCCc2nc(C(=O)N[C@H]3COc4ccccc4N(C)C3=O)nn21` (racemic) [Example 416, (R)—N—((S)-5-methyl-4-oxo-2,3,4,5-tetrahydrobenzo[b][1,4]oxazepin-3-yl)-5-propyl-5,6,7,8-tetrahydro-[1,2,4]triazolo[1,5-a]pyridine-2-carboxamide], the Ki under setting [2] was found to be 0.00463 µM.
As to `Cc1cc2n(n1)CCC(NC(=O)c1ncn(CC3CCCC3)n1)C(=O)N2C` (centres unmarked) [Example 251, 1-(cyclopentylmethyl)-N-(2,4-dimethyl-5-oxo-5,6,7,8-tetrahydro-4H-pyrazolo[1,5-a][1,3]diazepin-6-yl)-1H-1,2,4-triazole-3-carboxamide], the Ki under setting [3] was found to be 0.136 µM.

These data come from patent publication US10988459B2 (priority 2015, dated 2021).
